From ChEMBL document CHEMBL5131511, “Design of artificial α-helical peptides targeting both gp41 deep pocket and subpocket as potent HIV-1 fusion inhibitors” (Eur J Med Chem, 2022)
Calls of active or inactive are those of the source. No cut-off for these calls is given here.

Tests used:
[1] = system: Human immunodeficiency virus 1; test: Antiviral activity against HIV-1 IIIB (B, X4) assessed as inhibition of viral replication measured after 4 days by ELISA; format: functional, organism-based; settings: Human immunodeficiency virus 1, IIIB (B, X4), 96 h
[2] = Alpha-helicity of compound in PBS buffer at pH 7.4 at 10 uM incubated for 30 mins by CD spectroscopy relative to control; format: physicochemical; settings: pH 7.4, 0.5 h
[3] = system: Human immunodeficiency virus 1; test: Binding affinity to HIV1 gp41 NHR target surrogate N36 assessed as alpha-helicity at 10 uM incubated for 30 mins by CD spectroscopy (reference value: 26 %)
[4] = system: Human immunodeficiency virus 1; test: Binding affinity to HIV1 gp41 NHR target surrogate T21 assessed as alpha-helicity at 10 uM incubated for 30 mins by CD spectroscopy (reference value: 66 %)
[5] = system: Human immunodeficiency virus 1; test: Binding affinity to HIV1 gp41 NHR target surrogate N36 assessed as melting temperature at 10 uM incubated for 30 mins by CD spectroscopy
[6] = system: Human immunodeficiency virus 1; test: Binding affinity to HIV1 gp41 NHR target surrogate T21 assessed as melting temperature at 10 uM incubated for 30 mins by CD spectroscopy
[7] = system: Human immunodeficiency virus 1; test: Binding affinity to HIV1 gp41 NHR target surrogate T21 at 50 uM incubated for 30 mins by N-PAGE analysis
[8] = system: Human immunodeficiency virus 1; test: Binding affinity to HIV1 gp41 NHR target surrogate T21 assessed as binding constant, K by isothermal titration calorimetry
[9] = system: Human immunodeficiency virus 1; test: Antiviral activity against HIV-1 IIIB assessed as inhibition of viral replication measured after 4 days by ELISA; format: functional, organism-based; settings: Human immunodeficiency virus 1, IIIB, 96 h
[10] = system: Human immunodeficiency virus 1; test: Antiviral activity against T20-sensitive HIV-1 D36G assessed as inhibition of viral replication measured after 4 days by ELISA; format: functional, organism-based
[11] = system: Human immunodeficiency virus 1; test: Antiviral activity against T20-resistant HIV-1 V38E/N42S assessed as inhibition of viral replication measured after 4 days by ELISA; format: functional, organism-based
[12] = system: Human immunodeficiency virus 1; test: Antiviral activity against T20-resistant HIV-1 V38A/N42T assessed as inhibition of viral replication measured after 4 days by ELISA; format: functional, organism-based
[13] = Selectivity ratio of EC50 for antiviral activity against T20-resistant HIV-1 V38E/N42S to EC50 for antiviral activity against T20-sensitive HIV-1 D36G; format: functional
[14] = Selectivity ratio of EC50 for antiviral activity against T20-resistant HIV-1 V38A/N42T to EC50 for antiviral activity against T20-sensitive HIV-1 D36G; format: functional

Ac-QEENNKKWEEWDKKIEELIKKSEELIKKIEEQIKK-NH2
EC50 [1]: 68.7 nM

Ac-QEESIKKWEEWDKKIEELIKKSEELIKKIEEQIKK-NH2
EC50 [1]: 40.8 nM

Ac-QEESIKKWEEWSKKIEELIKKSEELIKKIEEQIKK-NH2
EC50 [1]: 64.5 nM | Activity [2]: 63% | Activity [3]: 92% | Activity [4]: 100% | Tm [5]: 52 °C | Tm [6]: 74 °C | Activity [7]: Active | K [8]: 1.59 10^5/M

Ac-QIWNNMTWEEWDKKIEELIKKSEELIKKIEEQIKK-NH2
EC50 [1]: 36.3 nM

Ac-WEEWDKKIEELIKKSEELIKKIEEQIKK-NH2
EC50 [1]: > 10000 nM

enfuvirtide
EC50 [9]: 8.26 nM | EC50 [10]: 41.1 nM | EC50 [11]: > 1000 nM | EC50 [12]: 696 nM | Ratio EC50 [13]: >24 | Ratio EC50 [14]: 17
